Earlier results in patent publication US20080139531A1, “USE OF CONNECTIVE TISSUE MAST CELL STABILIZERS TO FACILITATE OCULAR SURFACE RE-EPITHELIZATION AND WOUND REPAIR” (ALCON MANUFACTURING LTD., priority 2006, published 2008).

Tested on: human conjunctival mast cells
Conditions: qualitative statement citing Yanni et al., 1997

SMILES | inhibition of histamine release from human conjunctival mast cells
CN(C)CCC=C1c2ccccc2COc2ccc(CC(=O)O)cc21 [olopatadine, 11-(3-dimethylaminopropylidene)-6,11-dihydrodibenz[b,e]oxepin-2-acetic acid] | inhibits histamine release
Cc1cccn2c(=O)c(-c3nnn[nH]3)cnc12 [pemirolast] | Unlike cromolyn and pemirolast, olopatadine inhibits histamine release
